# Experiments:
# [1] = system: PPARδ; test: PPAR binding activity by gel shift on nuclear proteins of treated monocytes; format: cell-based, human
# Experimental: Next, the inventors investigated the transcription factors involved in the maturation process induced by LPC. In order to determine whether PPARs are involved in the LPC-induced maturation, the ability of the two transcription factors PPARγ and PPARδ to bind was analyzed using the gel shift technique. 3 isotypes of PPAR nuclear receptors (peroxisome proliferator-activated receptor) exist: α, γ and δ. PPARγs are the targets for molecules of the thiazolidinedione class, such as ciglitizone, used in the treatment of type II diabetes. PPARδs have a broader expression and can be repressors of PPARγs. The monocytes undergoing differentiation were incubated for two hours with a solution of LPC (40 μM) (“LPC” cells). “Control” cells are also obtained in the absence of LPC in the culture medium. After having harvested the cells, the nuclear proteins were extracted with the Nuclear extract Kit (Sigma). The nuclear proteins were then brought into contact with a ratioactively labeled probe containing a response element recognized by PPARs. […] The PPAR binding activity was determined by measuring the intensity of these bands. These activities are expressed as a percentage with respect to the “control” cells. […]
# The activity of the PPARγ and PPARδ transcription factors was measured in these cells by the gel shift technique, as described above.
# INTRALIPID® regulates PPARs in vitro. […] The cells were harvested after 1 h, 2 h or 8 h of incubation with INTRALIPID®, the nuclear proteins were extracted and the activity of PPARγ and PPARδ was determined as described in example 6.
# Secondly, a solution of INTRALIPID® (50 μg/ml of phospholipids) was added to the culture medium on the 5th day of monocyte differentiation, 15 minutes before the addition of a solution of LPC (40 μM) (“LPC+Intralipid” cells). […] The cells were harvested after 2 h of incubation, the nuclear proteins were extracted and the activity of PPARγ and PPARδ was determined as described in example 6.
# [2] = system: naïve allogenic T lymphocytes; test: Stimulation of IL-2 and γIFN secretion by allogenic T lymphocytes (mixed leukocyte reaction, ELISA); format: cell-based, human; set-up: unit not given here; settings: for Secretion of IL-2 by T lymphocytes / Secretion of γIFN by T lymphocytes: after 4 days; for Secretion of γIFN by T lymphocytes: Table 3; for Dendritic cell-induced secretion of γIFN by T lymphocytes: Table 8
# Experimental: The “control” and “LPC” cells used in this analysis are those obtained after 6 days of differentiation according to the protocol described in example 1.
# Naïve allogenic T lymphocytes are isolated from human peripheral blood. Peripheral blood mononuclear cells are isolated by density gradient centrifugation (600 g, 20 minutes) in the presence of Ficoll-Hypaque. After elimination of the monocytes on a Percoll gradient, the peripheral blood lymphocytes are found in the dense fraction. The T lymphocytes are purified by immunomagnetic depletion using a cocktail of anti-CD19 (antibody 4G7) (Becton Dickinson, Francklin Lakes, N.J., USA), anti-CD16 (antibody 3G8), anti-CD56 (antibody NKH1), anti-glycophorin A (antibody 11E4B7.6) and anti-CD14 (antibody RMPO52), monoclonal antibodies sold by Beckman Coulter.
# The purified T lymphocytes are cultured in flat-bottomed 96-well culture plates with the “control” or “LPC” cells.
# 2×10^5T cells are cultured in 200 μl of culture medium according to a monocytes differentiated in the presence or absence of LPC/T cells ratio (DC/LT ratio) of 1:5, 1:10 or 1:20. After 4 days, 50 μl of the culture supernatant are used to determine the secretion of IL-2 (interleukin 2) and of γIFN (gamma interferon) using an ELISA kit (Endogen, Woburn, Mass., USA).
# The inventors then used a PPARγ agonist, ciglitizone. A solution of ciglitizone (Sigma, 50 μM) was added to the culture medium on the fifth day of monocyte differentiation, as described in example 1, 15 minutes before the addition of a solution of LPC (40 μM, for […]). The cells obtained are “LPC+ciglitizone” cells. “Ciglitizone” cells were obtained according to the same protocol, but in the absence of LPC, and “LPC” cells were obtained as described in example 1, in the absence of ciglitizone.
# The functional ability of these cells (“control”, “ciglitazone” and “LPC+ciglitazone” cells) to stimulate T lymphocytes (LT) were then analyzed. These cells were cultured as described in example 4, in the presence of purified allogenic T lymphocytes. The secretion of γIFN was measured as in example 4.
# [3] = system: monocytes isolated from human peripheral blood; test: Internalization capacity (endocytosis, pinocytosis, macropinocytosis) of differentiated monocytes; format: cell-based; settings: control = 100%
# Experimental: The “control” and “LPC” cells used in this analysis are those obtained after 6 days of differentiation according to the protocol described in example 1. These cells are incubated at 37° C.: • for 30 minutes with 1 mg/ml of FITC-T70-Dextran (Sigma) in order to estimate the capacity of these cells for internalization by endocytosis, • for 30 minutes with 1 mg/ml of Lucifer Yellow (ref. L0259, Sigma, St Quentin-Fallavier, France) in order to estimate the capacity of these cells for internalization by pinocytosis, • for 3 hours with carboxylate-modified yellow-green FluoSpheres (trade name, 0.45 μm, Molecular Probes, Leiden, The Netherlands) in order to estimate the capacity of these cells for internalization by macropinocytosis.
# The internalization is stopped on ice with a cold PBS buffer containing 0.1% of BSA (Bovine Serum Albumin) and 0.05% of NaN3. The “control” and “LPC” cells are washed 3 times at 4° C. in this same buffer and the fluorescence is quantified by FACScalibur (trade name, Becton Dickinson).
substance,measurement,setting,value
L-α-lysophosphatidylcholine [LPC],PPARδ binding activity,"[1]; Table 6, LPC 40 μM, two hours, percentage with respect to control cells",263%
same,PPARδ activity,"[1]; Table 16, Intralipid 50 μg/ml phospholipids 15 minutes before LPC 40 μM, 2 h, control = 100%",160%
same,Secretion of IL-2 by T lymphocytes,[2]; DC/LT ratio 0,0
same,Secretion of IL-2 by T lymphocytes,[2]; DC/LT ratio 0.05,23 ± 1
same,Secretion of IL-2 by T lymphocytes,[2]; DC/LT ratio 0.1,47 ± 26
same,Secretion of IL-2 by T lymphocytes,[2]; DC/LT ratio 0.2,173 ± 31
same,Secretion of γIFN by T lymphocytes,[2]; DC/LT ratio 0,0
same,Secretion of γIFN by T lymphocytes,[2]; DC/LT ratio 0.05,73 ± 47
same,Secretion of γIFN by T lymphocytes,[2]; DC/LT ratio 0.1,439 ± 108
same,Secretion of γIFN by T lymphocytes,[2]; DC/LT ratio 0.2,795 ± 19
same,Dendritic cell-induced secretion of γIFN by T lymphocytes,[2]; DC/LT ratio 0,0
same,Dendritic cell-induced secretion of γIFN by T lymphocytes,[2]; DC/LT ratio 0.05,750 ± 184
same,Dendritic cell-induced secretion of γIFN by T lymphocytes,[2]; DC/LT ratio 0.1,899 ± 124
same,Dendritic cell-induced secretion of γIFN by T lymphocytes,[2]; DC/LT ratio 0.2,1326 ± 248
same,Capacity for internalization by endocytosis,[3]; FITC-T70-Dextran 30 minutes,53%
same,Capacity for internalization by macropinocytosis,[3]; FluoSpheres 3 hours,66%
same,Capacity for internalization by pinocytosis,[3]; Lucifer Yellow 30 minutes,49%

# Reference: US7368287B2, “Use of L-α-lysophosphatidylcholine to obtain the differentiation of monocytes into mature dendritic cells in vitro” (Biomerieux, priority 2002, dated 2008)
